Measured values taken from patent US10076491B2, “Vaccine composition” (NITTO DENKO CORPORATION, priority 2013, dated 2018).

Tested on: IFN-γ-producing cells (spleen cells)
Test: Mouse immunization test with cream formulation for transdermal administration, ELISPOT method (IFN-γ)
Type: in vivo
Settings: FIG. 1 / Table 2, combination with Th1 adjuvant imiquimod (IMQ), OVAp
Procedure: Spleen cells (3×10^6 cells/well) and an antigen peptide (100 μM) or an antigen protein (100 μg/mL) together with the culturing medium were placed into a well of an ELISPOT plate on which an anti-mouse IFN-γ antibody had been immobilized. The plate was cultured for 20 hours under the condition of 37° C. and 5% CO2. The number of the spots representing IFN-γ-producing cells (spot number/3×10^6 cells) was evaluated by the ELISPOT method.
Mouse Immunization Test with Cream Formulation for Transdermal Administration
Mouse immunization test was performed with the cream formulations prepared as described above using a model animal for immunological evaluation. The immunity induction level was evaluated by ELISPOT method. Specifically, the hair of the back of the mouse was cut, and the mouse was kept until it recovered from the skin damage due to the hair cutting. After that, 4 mg of each cream formulation was applied to the skin of the back of the mouse for 24 hours, and then removed. After 6 days, the level of the cellular immunity induction specific for the antigen was evaluated. Six days after the administration, the spleen of the mouse was removed to prepare a suspension of spleen cells. […] The number of the spot representing IFN-γ producing cells (spot number/3×10^6 cells) was evaluated by ELISPOT method.

Row | SMILES | effect of combination of Th2 cell differentiation inhibitor and Th1 adjuvant (ELISPOT)
1 | CC(C(=O)O)c1ccc(CC2CCCC2=O)cc1 (centres unmarked) [loxoprofen] | synergistic effect
2 | COc1ccc2cc3[n+](cc2c1OC)CCc1cc2c(cc1-3)OCO2 [berberine] | synergistic effect
